In assay [1] the test system is MCF-7 cells. The assay can be described thus: MTT antiproliferative assay, MCF-7. The format is cell-based. The note with it: Homo sapiens, MCF7, 72 h, read-out: Growth inhibition (%) ± SEM; for inhibition at 10 µM: MCF-7, 10 μM; for inhibition at 30 µM: MCF-7, 30 μM. As for the experimental part: (§1) The in vitro anticancer effects of the presented compounds were assessed using the standard MTT [3-(4,5-dimethylthiazol2-yl)-2,5-diphenyltetrazolium bromide] assay on the following human cancer cell lines: cervical (HeLa and SiHa), breast (MCF-7 and MDA-MB-231) and ovarian cancer (A2780). The selectivity of the tested compounds was determined on murine embryonal fibroblast cells (NIH/3T3). The utilised cell lines were purchased from the European Collection of Cell Cultures (Salisbury, UK). The cells were cultivated in Eagle’s minimal essential medium supplemented with 10% fetal bovine serum, 1% non-essential amino acids and 1% antibiotic-antimycotic complex (penicillin, streptomycin, amphotericin B) at 37 °C in a humidified atmosphere containing 5% CO2. All media and supplements were purchased from Lonza Group Ltd. (Basel, Switzerland). The cancer cells were seeded into 96-well plates (5000 cells/well) and incubated overnight, and the test compounds were applied in two different concentrations (10 µM and 30 µM) and incubated for another 72 h under cell-culturing conditions. […] After 72 h, 20 µL of the 5 mg/mL MTT solution was added to each well, and the plates were incubated for 4 h. The medium was removed, and the formazan crystals produced by the mitochondrial activity were dissolved in dimethyl sulfoxide (DMSO) via shaking at 37 °C for 30 min. The absorbances were measured at 545 nm using a microplate reader (SPECTROStar Nano, BMG Labtech, Offenburg, Germany). The reference agent was cisplatin, which is a widely used cytotoxic agent. The IC50 values were calculated using sigmoid curve fitting. Two independent experiments were performed with five parallel wells for each condition. Calculations were performed using the GraphPad Prism 9 software (GraphPad Software Inc., San Diego, CA, USA).

The test system of assay [2] is A2780 cells. The assay can be described thus: MTT antiproliferative assay, A2780. In kind it is cell-based. Conditions: Homo sapiens, 72 h, read-out: Growth inhibition (%) ± SEM; for inhibition at 10 µM: A2780, 10 μM; for inhibition at 30 µM: A2780, 30 μM. How it is done:
as §1

In assay [3] the test system is MDA-MB-231 cells. Description: MTT antiproliferative assay, MDA-MB-231. The format is cell-based. The note with it: Homo sapiens, 72 h, read-out: Growth inhibition (%) ± SEM; for inhibition at 10 µM: MDA-MB-231, 10 μM; for inhibition at 30 µM: MDA-MB-231, 30 μM. How it is done:
as §1

Assay [4] relates to NIH/3T3 fibroblast cells. Description: MTT assay on non-malignant fibroblasts (selectivity). The note with it: Mus musculus, NIH3T3, 72 h, read-out: Growth inhibition (%) ± SEM; for inhibition at 10 µM: NIH/3T3, 10 μM; for inhibition at 30 µM: NIH/3T3, 30 μM. The format is cell-based, murine. How it is done: as §1
The test system of assay [5] is SiHa cells. The assay can be described thus: MTT antiproliferative assay, SiHa. In kind it is cell-based. The note with it: Homo sapiens, 72 h, read-out: Growth inhibition (%) ± SEM. How it is done:
as §1

The subject of assay [6] is HeLa cells. Description: MTT antiproliferative assay, HeLa. In kind it is cell-based. Conditions: Homo sapiens, 72 h, read-out: Growth inhibition (%) ± SEM. How it is done:
as §1

For `COC(=O)[C@]1(C)CCC[C@@]2(C)[C@@H]3CC[C@@]4(CO)C[C@]3(CC[C@@H]21)C[C@H]4NCc1ccccc1` [Compound 8, (4R,4aS,6aR,8R,9R,11aR,11bS)-Methyl 8-(benzylamino)-9-(hydroxymethyl)-4,11b-dimethyltetradecahydro-6a,9-methanocyclohepta[a]naphthalene-4-carboxylate], the inhibition at 10 µM was 45.4 ± 1.94% in assay [1]; 20.3 ± 2.05% in assay [2]; under 20% in assay [3]; 25.7 ± 0.97% in assay [4]; under 20% in assay [5]; under 20% in assay [6]. In addition, the inhibition at 30 µM in assay [1] turned out to be 98.9 ± 0.18%; in assay [2] it was 98.25 ± 0.4%; in assay [3], 97.89 ± 0.66%; in assay [4], 98.27 ± 0.37%; in assay [5], 95.3 ± 1.23%; in assay [6], 97.49 ± 0.52%.

For the molecule `COC(=O)[C@]1(C)CCC[C@@]2(C)[C@@H]3CC[C@@]4(CO)C[C@]3(CC[C@@H]21)C[C@H]4NCc1ccc(F)cc1` [Compound 9, (4R,4aS,6aR,8R,9R,11aR,11bS)-Methyl 8-((4-fluorobenzyl)amino)-9-(hydroxymethyl)-4,11b-dimethyltetradecahydro-6a,9-methanocyclohepta[a]naphthalene-4-carboxylate], the inhibition at 10 µM in assay [1] was 79.8 ± 1.59%; in assay [2], 73.6 ± 2.61%; in assay [3], 58 ± 2.59%; in assay [4], under 20%; in assay [5], under 20%; in assay [6], under 20%. For the same molecule, the inhibition at 30 µM in assay [1] was found to be 98.07 ± 0.35%; in assay [2] it was 99.01 ± 0.11%; in assay [3], 93.42 ± 0.39%; in assay [4] it was 93.9 ± 1.94%; in assay [5], 86 ± 2.92%; in assay [6], 95.35 ± 0.58%.

As to `CC[C@H](NC[C@@]12CC[C@@H]3[C@@](CC[C@H]4[C@@]3(C)CCC[C@@]4(C)C(=O)OC)(C[C@H]1O)C2)c1ccccc1` [Compound 25, (4R,4aS,6aR,8R,9S,11aR,11bS)-Methyl 8-hydroxy-4,11b-dimethyl-9-((((S)-1-phenylpropyl)amino)methyl)tetradecahydro-6a,9-methanocyclohepta[a]naphthalene-4-carboxylate], the inhibition at 10 µM is 40.1 ± 1.44% in assay [1]; under 20% in assay [2]; under 20% in assay [3]; under 20% in assay [4]; under 20% in assay [5]; under 20% in assay [6]. Besides, the inhibition at 30 µM is 78.8 ± 1.52% in assay [1]; 73.83 ± 0.57% in assay [2]; 69.3 ± 1.96% in assay [3]; 93.7 ± 1.11% in assay [4]; under 20% in assay [5]; 32.2 ± 2.88% in assay [6].

Take `COC(=O)[C@]1(C)CCC[C@@]2(C)[C@@H]3CC[C@@]4(CN[C@H](C)c5ccc6ccccc6c5)C[C@]3(CC[C@@H]21)C[C@H]4O` [Compound 29, (4R,4aS,6aR,8R,9S,11aR,11bS)-Methyl 8-hydroxy-4,11b-dimethyl-9-((((R)-1-(naphthalen-2-yl)ethyl)amino)methyl)tetradecahydro-6a,9-methanocyclohepta[a]naphthalene-4-carboxylate]: the inhibition at 10 µM was 32.5 ± 0.92% in assay [1]; 21.9 ± 0.73% in assay [2]; under 20% in assay [3]; under 20% in assay [4]; under 20% in assay [5]; under 20% in assay [6]. Besides, the inhibition at 30 µM is 93.08 ± 0.3% in assay [1]; 75 ± 1.79% in assay [2]; 95.3 ± 0.97% in assay [3]; 32 ± 1.3% in assay [4]; 79.5 ± 2.33% in assay [5]; 92.17 ± 0.38% in assay [6].

For `COC(=O)[C@]1(C)CCC[C@@]2(C)[C@@H]3CC[C@@]4(CO)C[C@]3(CC[C@@H]21)C[C@H]4NCc1ccc(OC)cc1` [Compound 10, (4R,4aS,6aR,8R,9R,11aR,11bS)-Methyl 9-(hydroxymethyl)-8-((4-methoxybenzyl)amino)-4,11b-dimethyltetradecahydro-6a,9-methanocyclohepta[a]naphthalene-4-carboxylate], the inhibition at 10 µM in assay [1] is 86.5 ± 0.88%; in assay [2], 39 ± 1.87%; in assay [3] it was 78.7 ± 2.63%; in assay [4], 20.3 ± 2.93%; in assay [5] it was under 20%. For the same molecule, the inhibition at 30 µM in assay [1] was found to be 100 ± 0.2%; in assay [2], 98.38 ± 0.51%; in assay [3] it was 98.09 ± 0.59%; in assay [4], 96.6 ± 1.1%; in assay [5], 97.61 ± 0.9%; in assay [6], 97.65 ± 0.64%.

Take `CC[C@@H](NC[C@@]12CC[C@@H]3[C@@](CC[C@H]4[C@@]3(C)CCC[C@@]4(C)C(=O)OC)(C[C@H]1O)C2)c1ccccc1` [Compound 24, (4R,4aS,6aR,8R,9S,11aR,11bS)-Methyl 8-hydroxy-4,11b-dimethyl-9-((((R)-1-phenylpropyl)amino)methyl)tetradecahydro-6a,9-methanocyclohepta[a]naphthalene-4-carboxylate]: the inhibition at 10 µM is 34.8 ± 1.99% in assay [1]; under 20% in assay [2]; under 20% in assay [3]; 21.8 ± 2.15% in assay [4]; under 20% in assay [5]; under 20% in assay [6]. Further, the inhibition at 30 µM turned out to be 93.6 ± 0.94% in assay [1]; 99.28 ± 0.52% in assay [2]; 97.6 ± 1.01% in assay [3]; 97.69 ± 0.87% in assay [4]; 78.1 ± 1.56% in assay [5]; 96.56 ± 0.88% in assay [6].

For the molecule `COC(=O)[C@]1(C)CCC[C@@]2(C)[C@@H]3CC[C@@]4(CNCc5cccc6ccccc56)C[C@]3(CC[C@@H]21)C[C@H]4O` [Compound 26, (4R,4aS,6aR,8R,9S,11aR,11bS)-Methyl 8-hydroxy-4,11b-dimethyl-9-(((naphthalen-1-ylmethyl)amino)methyl)tetradecahydro-6a,9-methanocyclohepta[a]naphthalene-4-carboxylate], the inhibition at 10 µM in assay [1] worked out at 90.7 ± 1.57%; in assay [2], 61.4 ± 1.45%; in assay [3] it was 87.61 ± 0.59%; in assay [4], 25.7 ± 1.93%; in assay [5], 63.4 ± 0.91%; in assay [6], 49.5 ± 1.23%. Also, the inhibition at 30 µM in assay [1] amounted to 97.49 ± 0.53%; in assay [2] it was 98.21 ± 0.43%; in assay [3], 93.1 ± 1.53%; in assay [4], 95.6 ± 0.96%; in assay [5] it was 86.9 ± 1.69%; in assay [6], 93.6 ± 1.56%.

In the case of `COC(=O)[C@]1(C)CCC[C@@]2(C)[C@@H]3CC[C@@]4(CO)C[C@]3(CC[C@@H]21)C[C@H]4NCc1cccc2ccccc12` [Compound 15, (4R,4aS,6aR,8R,9R,11aR,11bS)-Methyl 9-(hydroxymethyl)-4,11b-dimethyl-8-((naphthalen-1-ylmethyl)amino)tetradecahydro-6a,9-methanocyclohepta[a]naphthalene-4-carboxylate], the inhibition at 10 µM was 54 ± 3.39% in assay [1]; 89.5 ± 1.76% in assay [2]; 31.3 ± 1.89% in assay [3]; under 20% in assay [4]; under 20% in assay [5]; under 20% in assay [6]. Besides, the inhibition at 30 µM in assay [1] is 97.43 ± 0.59%; in assay [2], 99.67 ± 0.49%; in assay [3] it was 94.2 ± 0.98%; in assay [4], 96.5 ± 0.77%; in assay [5], 87.9 ± 1.33%; in assay [6], 94.9 ± 2.04%.

For the origin of these results see article PMC10745768, “Stereoselective Synthesis and Antiproliferative Activity of Steviol-Based Diterpene 1,3-Aminoalcohol Regioisomers” (Molecules, 2023).
